Activity calls are given as the source filed them. The calls are words filed in the database; no cut-off is given here.

As a reminder, the IC50 is the concentration needed to halve the response being measured.

A short description of test [1]: Antioxidant activity assessed as DPPH scavenging activity after 30 mins by microplate reader method. The class given is functional.
Test [2] is described as follows: Antioxidant activity assessed as singlet 1O2 oxygen quenching activity after 2 mins by EPR spectrometry. The class given is functional.
Test [3] is described as follows: Antioxidant activity assessed as inhibition of singlet 1O2 oxygen formation at 1.3 uM after 2 mins by EPR spectrometry. It is filed as functional.
Test [4] in a line: Antioxidant activity assessed as complete inhibition of singlet 1O2 oxygen formation at 37 uM after 2 mins by EPR spectrometry.
Test [5] can be described thus: Antioxidant activity assessed as inhibition of TEMP-singlet 1O2 oxygen adduct formation measuring after 2 mins by EPR spectrometry. It is filed as functional.
Test [6] in a line: Ratio of resveratrol IC50 to compound IC50 for singlet 1O2 oxygen quenching activity.

As to `COc1cc(/C=N/c2ccc(O)cc2)cc(OC)c1`, the IC50 in test [1] is 413 µM.

With `Oc1ccc(/N=C/c2cc(O)cc(O)c2)cc1`, the IC50 in test [1] is 164 µM.

As to `Cc1ccc(/N=C/c2cccc(O)c2)cc1`, the IC50 in test [1] is above 1000 µM.

Consider `Oc1ccc(/N=C/c2ccccc2)cc1` [4-(BENZYLIDENEAMINO)PHENOL], for which the IC50 in test [1] stood at 142 µM.

With `Oc1ccccc1/C=N/c1ccccc1` [2-((PHENYLIMINO)METHYL)PHENOL], the IC50 in test [1] is above 1000 µM.

For `Cc1ccc(/N=C/c2ccc(O)cc2)cc1`, in test [1], the half-inhibitory concentration (IC50) was above 1000 µM.

As for `Oc1ccc(/N=C/c2ccccc2O)cc1`, the IC50 in test [1] stood at 561 µM.

Turning to `COc1ccc(/N=C/c2ccc(O)cc2)cc1`, in test [1], the IC50 is above 1000 µM.

For `O=C1O[C@H]([C@@H](O)CO)C(O)=C1O` [ASCORBIC ACID], in test [1], the IC50 amounted to 19.3 µM.

`COc1ccc(/C=N/c2ccc(OC)cc2)cc1`: the IC50 in test [1] is above 1000 µM.

For `Cc1cccc(/N=C/c2ccc(O)cc2)c1`, in test [1], the half-maximal inhibitory concentration (IC50) is above 1000 µM.

For `COc1cc(/C=C/C(=O)CC(=O)/C=C/c2ccc(O)c(OC)c2)ccc1O` [CURCUMIN], in test [2], the half-inhibitory concentration (IC50) worked out at 2.75 µM.

As to `Oc1ccccc1/C=N/c1ccccc1O`, the 50% inhibitory concentration (IC50) was determined as 2.92 µM in test [2] and 27.4 µM in test [1].

`Oc1ccc(/C=C/c2cc(O)cc(O)c2)cc1` [RESVERATROL]: the IC50 in test [2] was 16.9 µM; in test [1] it was 71.2 µM.

For `COc1cccc(/C=N/c2ccc(C)cc2)c1`, in test [1], the half-inhibitory concentration (IC50) is above 1000 µM.

`Oc1ccc(/C=N/c2ccccc2O)cc1O`: the IC50 is 2.26 µM in test [2] and 12.1 µM in test [1].

With `Oc1ccc(/C=N/c2ccccc2O)cc1`, the inhibition result in test [3] and in test [4] was “Active” in each case. Also, the values for the IC50 in test [2] and in test [1] were 0.99 µM and 24.3 µM, respectively. Moreover, the inhibition result in test [5] is “Dose-dependent effect”. Further, the Ratio IC50 in test [6] was above 15.

As to `COc1ccc(/C=N/c2ccccc2O)cc1`, the IC50 is 1.3 µM in test [2] and 28.1 µM in test [1].

In the case of `Oc1ccc(/C=N/c2cccc(O)c2)cc1`, in test [1], the half-inhibitory concentration (IC50) stood at 362 µM.

Regarding `Oc1cccc(/N=C/c2ccccc2O)c1`, the concentration for half-maximal inhibition (IC50) in test [1] is 468 µM.

With `COc1cccc(/C=N/c2ccccc2C)c1`, the IC50 in test [1] is above 1000 µM.

For `Oc1cccc(/C=N/c2ccccc2O)c1`, the concentration for half-maximal inhibition (IC50) in test [2] came out at 2.18 µM; in test [1], 23.1 µM.

In the case of `COc1cccc(/C=N/c2ccccc2O)c1`, the half-maximal inhibitory concentration (IC50) was determined as 1.42 µM in test [2] and 24.9 µM in test [1].

Turning to `Oc1cccc(/C=N/c2ccccc2)c1`, the IC50 in test [1] is above 1000 µM.

Take `C(=N\c1ccccc1)/c1ccccc1`: the IC50 in test [1] is above 1000 µM.

On to `Oc1ccccc1/N=C/c1ccccc1`, for which the IC50 worked out at 3.47 µM in test [2] and 23.9 µM in test [1].

Values taken from ChEMBL document CHEMBL2062421, “The antioxidant effect of imine resveratrol analogues” (Bioorg Med Chem Lett, 2012).
